Data: the OPERA property sets (Mansouri et al. 2018)

Row | Compound | logP
1 | Cc1cccc(C)c1C(=N)c1ccccc1 | 3.53
2 | O=C1OC(Cc2ccccc2)c2ccccc21 (stereo not given) | 3.12
3 | CCCCNP(=O)(OC)Oc1cc(Cl)c(Cl)cc1Cl (stereo not given) | 4.18
4 | CCN(CCOC(C)=O)c1ccccc1 | 2.04
5 | O=S(=O)(Nc1cccc(Br)c1)C(F)(F)F | 3.82
6 | CCCCN(SN(C)C(=O)ON=C(C)SC)C(=O)OC | 2.5
7 | C=C(C)C(=O)OC(C)C | 2.25
8 | CCCCN(CCCC)CCS(=O)(=O)c1cc(OC)c(OC)c(OC)c1 | 3.55
9 | NC(=S)NN=Cc1cccc(O)c1 | 1.61
10 | O=[N+]([O-])C=Cc1cccc(Cl)c1 | 2.57
11 | Nc1nc(N)nc(-c2cc(Br)ccc2Cl)n1 | 2.04
12 | COc1cc(Cc2cnc(N)nc2N)ccc1Cl | 1.87
13 | C#CCN(C)N=Nc1nc[nH]c1C(N)=O | 0.33
14 | Cc1ccc(N2C(N)=NC(N)=NC2(C)C)cc1 | 0.85
15 | NS(=O)(=O)c1cccc(OC(=O)CNC(=O)c2ccccc2)c1 | 0.84
16 | Cc1cc(C)cc(O[Si]23OCCN(CCO2)CCO3)c1 | 0.46
17 | Oc1nc2ccccc2nc1O | 0.2
18 | Clc1cccc(Cl)c1-c1ccccc1 | 4.98
19 | CC(C)c1cccc(OC2OC(CO)C(O)C(O)C2O)c1 (stereo not given) | 0.65
20 | C[N+](C)(C)Cc1cccc([N+](=O)[O-])c1.[Br-] | -2.66

Row | Compound | logP
21 | N#Cc1cc(OCC(=O)O)ccc1Cl | 1.56
22 | Nc1nc(N)nc(-c2cc(Br)ccc2F)n1 | 1.94
23 | CC(C)Cc1nnc(N)o1 | 0.4
24 | CCC(=O)Cn1ccnc1C=Cc1occc1[N+](=O)[O-] | 1.27
25 | CCNNC(=O)COc1ccc(Cl)cc1 | 1.73
26 | O=[N+]([O-])c1cccc2c1c([N+](=O)[O-])cc[n+]2[O-] | 0.95
27 | CCOP(=S)(OCC)Oc1ccccc1 | 3.46
28 | CCCCC1OC(=O)c2cc(NC(C)=O)ccc21 (stereo not given) | 2.77
29 | CCN(CC)CCCNC(=O)c1ccccc1 | 1.56
30 | CCCCC1OC(=O)c2cc(Cl)ccc21 (stereo not given) | 3.53
31 | CCc1cc(NC(C)=O)ccc1O | 1.31
32 | CCOC(=O)C(C#N)=NNc1cccc(Cl)c1 | 3.94
33 | Cn1c(=O)nc(-c2ccccc2)c2ccccc21 | 1.79
34 | O=S1(=O)NC(c2ccco2)=Nc2ccccc21 | 1.06
35 | CN1CCN(N=O)CC1 | 0.2
36 | CSc1ccccc1C1=NCC(=O)Nc2ccc(Cl)cc21 | 2.99
37 | CN(C)N=Nc1cccc(C(=O)O)c1 | 2.03
38 | CC(=O)NNC(=O)c1ccccc1N=NN(C)C | 1.18
39 | Cn1cnc([N+](=O)[O-])c1S(=O)(=O)Oc1ccccc1 | 1.08
40 | COc1cc(S(=O)(=O)CCC(C)C)cc(OC)c1OC | 2.12

Row | Compound | logP
41 | Oc1ccc(C(c2ccc(O)cc2)c2nccs2)cc1 | 2.96
42 | COc1c(N(C)C)cc(Cc2cnc(N)nc2N)cc1N(C)C(C)=O | 1.01
43 | O=[N+]([O-])c1cnc(N=C2NCCN2)s1 | 1.38
44 | CC1=Nc2ccc(C(F)(F)F)cc2S(=O)(=O)N1 | 1.51
45 | Clc1ccc(Cl)c(-c2cc(Cl)cc(Cl)c2Cl)c1 | 6.79
46 | CNC(=O)ON=Cc1ccc(Cl)cc1 | 2.27
47 | Nc1nc(N)nc(-c2cccc(Cl)c2)n1 | 2.33
48 | CC(O)Cn1ccnc1[N+](=O)[O-] (stereo not given) | -0.16
49 | O=C1CN=C(c2ccccc2[N+](=O)[O-])c2cc([N+](=O)[O-])ccc2N1 | 1.61
50 | CC(=O)Oc1ccc(N=C2C=CC(=O)C=C2)cc1 | 1.43
51 | Cc1nonc1-c1ccccn1 | 2.09
52 | O=C(O)COc1ccc(N=Nc2ccccc2)cc1 | 2.99
53 | CC1(C)N=C(N)N=C(N)N1c1ccc(I)cc1 | 1.39
54 | CN(C)c1ncnc2sccc12 | 1.82
55 | CC(=O)C(C#N)=NNc1ccc(Cl)cc1 | 4.1
56 | COC1C(Cl)C(Cl)C(Cl)C(Cl)C1OC (stereo not given) | 2.82
57 | COc1ccccc1C1=NCC(=O)Nc2ccc(Cl)cc21 | 2.63
58 | CCCCOCc1c(CO)cnc(C)c1O | 1.34
59 | CC(C)=CC1C(C(=O)OCc2cccc([N+](=O)[O-])c2)C1(C)C (stereo not given) | 5.2
60 | [O-][n+]1ccccc1SCc1ccccc1 | 1.24
